Laboratory results reported in article PMC11784096, “Synthesis, antibacterial evaluation and in silico studies of novel 2-(benzo[d]thiazol-2-yl)-N-arylacetamides and their derivatives as potential DHFR inhibitors” (BMC Chemistry, 2025).
Converted amounts (≈) assume the structure as drawn.

What was measured:
[1] = test system: E. coli; assay: Agar diffusion method, inhibition zone diameter; assay type: cell-based, Escherichia coli; settings: Gram-negative
Source text: (§1) The bacterial growth inhibition activity of most of the newly synthesized compounds was examined against different Gram-positive and Gram-negative strains. The Agar diffusion method was used to assess the antibacterial and antifungal activity. The Gram-negative strains were: E. coli, K. pneumonia, P. aeruginosa and A. baumannii, the Gram-positive strains were: St. aureus, St. mutans and the standard antibiotics were gentamicin, tigecycline and ampicillin.
(§2) The agar-based media plate surface was inoculated by spreading a volume of the microbial inoculum over the entire agar surface.
(§3) Using a sterile cork borer or a tip, a hole with a diameter of 6 to 8 mm was made.
(§4) Using a micropipette, (20 µL) volume of the antimicrobial agent or extract solution at the desired concentration was introduced into the well.
(§5) The inoculated plates were incubated under suitable conditions depending upon the tested microorganism. The antimicrobial agent diffused through the agar medium and inhibited the growth of the microbial strain tested.
(§6) After a suitable incubation period (16 to 48 hours) according to the optimum growth conditions, the resulting inhibition zone diameters (in mm) around the wells were measured to the nearest whole millimeter at the point at which there is a prominent reduction in growth. If growth is insufficient at the recommended times, the plates should be re-incubated and read later.

[2] = test system: A. baumannii; assay: Agar diffusion method, inhibition zone diameter; assay type: cell-based, Acinetobacter baumannii; settings: Gram-negative
Source text: as §1, §2, §3, §4, §5, §6

[3] = test system: P. aeruginosa; assay: Agar diffusion method, inhibition zone diameter; assay type: cell-based, Pseudomonas aeruginosa; settings: Gram-negative
Source text: as §1, §2, §3, §4, §5, §6

[4] = test system: K. pneumonia; assay: Minimum inhibition concentration, serial dilution; assay type: cell-based, Klebsiella pneumonia; settings: Klebsiella pneumoniae, 37 °C
Procedure: (§7) For each strain, three to five isolated colonies were selected from the fresh agar plate and transferred into a tube containing 3-4 ml of the sterile broth medium. The bacterial suspension was mixed well and incubated at 35-37 °C for 2-6 hours. […] After that, 1 mg of the tested compound (antimicrobial agent) was dissolved in 1 ml of DMSO and a two-fold serial dilution was done using a broth medium. A fixed volume of the prepared bacterial inoculum was added to each tube and incubated at 37 °C for 16-20 hours. The MIC is defined as the lowest concentration of the antimicrobial agent that inhibits visible growth of the tested isolate as observed with the unaided eye.

[5] = test system: E. coli; assay: Minimum inhibition concentration, serial dilution; assay type: cell-based, Escherichia coli; settings: Escherichia coli, 37 °C
Procedure: as §7

[6] = test system: K. pneumonia; assay: Agar diffusion method, inhibition zone diameter; assay type: cell-based, Klebsiella pneumonia; settings: Gram-negative
Source text: as §1, §2, §3, §4, §5, §6

[7] = test system: St. aureus; assay: Agar diffusion method, inhibition zone diameter; assay type: cell-based, Staphylococcus aureus; settings: Gram-positive
Source text: as §1, §2, §3, §4, §5, §6

[8] = test system: A. baumannii; assay: Minimum inhibition concentration, serial dilution; assay type: cell-based, Acinetobacter baumannii; settings: Acinetobacter baumannii, 37 °C
Procedure: as §7

Compound	IZD E. coli [1] [mm]	IZD A. baumannii [2] [mm]	IZD K. pneumonia [6] [mm]	also measured
O=C(Nc1ccccc1)C(=Cc1ccccc1)c1nc2ccccc2s1 [4a, 2-(Benzo[d]thiazol-2-yl)-N,3-diphenylacrylamide]	11 ± 1			
COc1ccc(C=C(C(=O)Nc2ccccc2)c2nc3ccccc3s2)cc1 [4b, 2-(Benzo[d]thiazol-2-yl)-3-(4-methoxyphenyl)-N-phenylacrylamide]		13 ± 1		
COc1ccc(C=C(C(=O)Nc2ccc(C)cc2)c2nc3ccccc3s2)cc1OC [4g, 2-(Benzo[d]thiazol-2-yl)-3-(3,4-dimethoxyphenyl)-N-(p-tolyl)acrylamide]	18 ± 1			
O=C(Nc1ccc(Cl)cc1)C(=Cc1ccccc1)c1nc2ccccc2s1 [4i, 2-(Benzo[d]thiazol-2-yl)-N-(4-chlorophenyl)-3-phenylacrylamide]	20 ± 1	15 ± 1	23 ± 1	IZD P. aeruginosa [3]: no activity; MIC [4]: 0.125 µg/mL (≈ 0.32 µM); MIC [5]: 0.125 µg/mL (≈ 0.32 µM); IZD St. aureus [7]: 12 ± 1 mm
O=C(Nc1ccc(Cl)cc1)C(=Cc1ccc(OC(=O)c2ccccc2)cc1)c1nc2ccccc2s1 [4o, 4-(2-(Benzo[d]thiazol-2-yl)-3-((4-chlorophenyl)amino)-3-oxoprop-1-en-1-yl)phenyl-benzoate]		10 ± 1	13 ± 1	
Cc1ccc(-c2nn(-c3ccccc3)cc2C=C(C(=O)Nc2ccccc2)c2nc3ccccc3s2)cc1 [6b, 2-(Benzo[d]thiazol-2-yl)-N-phenyl-3-(1-phenyl-3-(p-tolyl)-1H-pyrazol-4-yl)acrylamide]		10 ± 1	13 ± 1	
O=C(Nc1ccccc1)C(=Cc1cn(-c2ccccc2)nc1-c1ccc(Cl)cc1)c1nc2ccccc2s1 [6c, 2-(Benzo[d]thiazol-2-yl)-3-(3-(4-chlorophenyl)-1-phenyl-1H-pyrazol-4-yl)-N-phenyl-acrylamide]		13 ± 1		
Cc1ccc(NC(=O)C(=Cc2cn(-c3ccccc3)nc2-c2ccccc2)c2nc3ccccc3s2)cc1 [6d, 2-(Benzo[d]thiazol-2-yl)-3-(1,3-diphenyl-1H-pyrazol-4-yl)-N-(p-tolyl)acrylamide]		10 ± 1	13 ± 1	
Cc1ccc(NC(=O)C(=Cc2cn(-c3ccccc3)nc2-c2ccc(C)cc2)c2nc3ccccc3s2)cc1 [6e, 2-(Benzo[d]thiazol-2-yl)-3-(1-phenyl-3-(p-tolyl)-1H-pyrazol-4-yl)-N-(p-tolyl)acrylamide]	31 ± 1		36 ± 0.8	IZD St. aureus [7]: 29 ± 0.5 mm
Cc1ccc(-c2nn(-c3ccccc3)cc2C=C(C(=O)Nc2ccc(Cl)cc2)c2nc3ccccc3s2)cc1 [6h, 2-(Benzo[d]thiazol-2-yl)-N-(4-chlorophenyl)-3-(1-phenyl-3-(p-tolyl)-1H-pyrazol-4-yl)acrylamide]		13 ± 1		
COc1ccc(-c2c(C#N)c(N)n(-c3ccccc3)c(=O)c2-c2nc3ccccc3s2)cc1 [11b, 2-Amino-5-(benzo[d]thiazol-2-yl)-4-(4-methoxyphenyl)-6-oxo-1-phenyl-1,6-dihydro-pyridine-3-carbonitrile]	19 ± 1	15 ± 1		
COc1ccc(-c2c(C#N)c(N)n(-c3ccc(C)cc3)c(=O)c2-c2nc3ccccc3s2)cc1 [11d, 2-Amino-5-(benzo[d]thiazol-2-yl)-4-(4-methoxyphenyl)-6-oxo-1-(p-tolyl)-1,6-dihydro-pyridine-3-carbonitrile]	35 ± 1	10 ± 1	23 ± 1	IZD P. aeruginosa [3]: 13 ± 1 mm; MIC [4]: 0.0625 µg/mL (≈ 0.135 µM); MIC [5]: 0.0315 µg/mL (≈ 0.0678 µM)
CN(C)c1cc(NC(=O)CNC(C)(C)C)c(O)c2c1C[C@H]1C[C@H]3[C@H](N(C)C)C(O)=C(C(N)=O)C(=O)[C@@]3(O)C(O)=C1C2=O [Tigecycline, reference compound]		23 ± 0.4		MIC [8]: 0.0312 µg/mL (≈ 0.0534 µM)
